Earlier results on 1 compound are cited in patent US20220354806A1, “COMPOSITION FOR IMPROVING MEMORY” (BGG JAPAN CO., LTD., priority 2019, published 2022).

The structures appear in SMILES notation.

For data set [1] the following is noted: greater than that of a vitamin E.
For data set [2] the following is noted: after ingesting compared with before ingesting; no placebo comparison.
The conditions of data set [3]: placebo group ingesting corn oil.

With `CC1=C(/C=C/C(C)=C/C=C/C(C)=C/C=C/C=C(C)/C=C/C=C(C)/C=C/C2=C(C)C(=O)C(O)CC2(C)C)C(C)(C)CC(O)C1=O` (stereo not drawn) [astaxanthin, 3,3′-dihydroxy-β,β-carotene-4,4′-dione], in data set [1], the “anti-oxidation effect relative to vitamin E” value is on record as 1000 times. In data set [2], the “correct answer rate in the operation of the "working memory"” value is listed as “improved” and the “response time of all 5 operations (simple reaction, choice reaction, working memory, delayed recall, divided attention)” value is listed as “improved”. Besides, in data set [3], the “improvement effect on the human cognitive function, astaxanthin group vs placebo group” value is “a significant difference of the improvement effect on the human cognitive function is not confirmed”.
